{
  "source": "patent US5212165A",
  "about": "“Method for rehabilitating the vasorelaxant action of the coronary arteries impaired through atherosclerosis or hypercholesterolemia employing an ACE inhibitor” (E. R. Squibb & Sons, Inc., priority 1989, dated 1993)",
  "key": {"[1]": {"system": "K^+ depolarized arteries (iliac rings)", "assay": "Contractile responses to CaCl2 in K^+ depolarized iliac rings from cynomolgus monkeys", "design": "species or system cynomolgus (Macaca fascicularis) monkeys", "text": "(§1) Twenty-four male cynomolgus (Macaca fascicularis) monkeys were divided into four groups of six animals each. During the course of the study, one of the control monkeys was sacrificed due to ill health unrelated to the study. Each group was fed a different diet for six months. The control group ate a normal diet of monkey biscuit. The cholesterol group ate a specially formulated monkey diet containing cholesterol. The cholesterol +low captopril group ate the cholesterol diet supplemented with captopril (50 mg/kg divided into two daily doses). The cholesterol+high captopril group ate the cholesterol diet and a higher total dose of captopril (100 mg/kg divided into two daily doses).\n(§2) The monkeys were sedated with an intramuscular injection of ketamine (10 mg/kg), then anesthetized with pentobarbital (25 mg/kg). The iliac arteries were carefully dissected, cleaned of surrounding connective tissue, and refrigerated overnight for use the following day.\n(§3) On the day of the experiment, three iliac rings (3 mm wide) from each animal were cut and mounted for isometric force recording. Each ring was attached to a micrometer for the control of muscle length and to a Grass FT.03 force transducer and Grass 7D recorder. The rings were placed in warm (37° C.), oxygenated, physiological salt solution (PSS) of the following composition (in mM): 140.0 NaCl, 4.7 KCl, 1.2 MgSO4, 1.6 CaCl2, 1.2 NaH2 PO4, 5.6 D-glucose, 2.0 2-(N-morpholino)propanesulfonic acid (MOPS, pH 7.4 at 37° C.), and 0.02 Na2 -ethylenediaminetetraacetic acid (EDTA). The rings were stretched to a preload of 5 g during a 2 hour equilibration period, then stimulated with 1 μM phenylephrine to test for viability and relaxed with 100 nM acetylcholine to test for endothelial function. Stock solutions of phenylphrine, acetylcholine, propranolol, and sodium nitroprusside were prepared daily in water; nifedipine stock solutions were prepared daily in ethanol.\n(§4) The voltage-dependent calcium channels were studied in one ring from each monkey. The protocol consisted of depleting the cells of calcium by exposing the rings to a Ca-free, EGTA (ethylene glycol-bis(β-aminoethyl ether)N,N,N',N'-tetraacetic acid) PSS (omission of CaCl2 and addition of 0.1 mM EGTA) for 30 minutes. The EGTA was subsequently removed from the tissues with three washes of Ca-free PSS (simple omission of CaCl2). Following that, the rings were bathed in Ca-free, K^+ PSS (omission of CaCl2 and isoosmotic substitution of KCl for NaCl such that the KCl concentration was 110 mM) for 30 minutes. A CaCl2 concentration-response curve was obtained by replacing the bath solution with K^+ PSS containing incremental increases in CaCl2 concentration (0.1, 0.3, 0.5, 1.0, 1.25, 1.6, and 2.5 mM). The maximal contractions, in response to 2.5 mM CaCl2, were then relaxed incrementally with nifedipine. Another iliac ring (fade control) from each monkey was subjected to the same protocol with the exception that the strips were allowed to remain contracted and the nifedipine concentration-response curve was not obtained. Some fade of the CaCl2 -induced force was observed over the time period required for the nifedipine concentration-response curve. This fade was accounted for by decreasing the amount of relaxation observed upon addition of nifedipine by the amount of fade observed in the time control from the same monkey.\nData are presented as mean±SEM. The IC50 and EC50 values were estimated by linearly interpolating from the concentration-response curves. The EC50 values for each ring were used to determine the means for each treatment group.\nConcentration-response curves to CaCl2 in K^+ depolarized rings were obtained following depletion of tissue calcium by repeated washing in Ca-free PSS first with, then without, EGTA. There were no differences in the responses to CaCl2 among any of the treatment groups (Table 1)."}, "[2]": {"system": "voltage-dependent calcium channels (iliac rings)", "assay": "Relaxation responses to nifedipine of CaCl2-contracted iliac rings from cynomolgus monkeys", "design": "species or system cynomolgus (Macaca fascicularis) monkeys", "conditions": "cholesterol-fed monkeys, with captopril", "text": "as §1, §2, §3, §4\nData are presented as mean±SEM. The IC50 and EC50 values were estimated by linearly interpolating from the concentration-response curves. […]"}},
  "data": [
    {"smiles": "C[C@H](CS)C(=O)N1CCC[C@H]1C(=O)O", "note": "[captopril, 1-[(2S)-3-mercapto-2-methylpropionyl]-L-proline]", "values": [
      {"measurement": "Max Force (CaCl2)", "setting": "[1]; Cholesterol + High Captopril (100 mg/kg daily, six months), Mean ± SEM", "result": "16.8 ± 1.1", "unit": "g"},
      {"measurement": "Max Force (CaCl2)", "setting": "[1]; Cholesterol + Low Captopril (50 mg/kg daily, six months), Mean ± SEM", "result": "16.5 ± 1.8", "unit": "g"},
      {"measurement": "EC50 at 100 mg/kg", "setting": "[1]; Macaca fascicularis, Cholesterol + High Captopril (100 mg/kg daily, six months), Mean ± SEM", "result": "150 ± 30", "unit": "µM"},
      {"measurement": "EC50 at 50 mg/kg", "setting": "[1]; Macaca fascicularis, Cholesterol + Low Captopril (50 mg/kg daily, six months), Mean ± SEM", "result": "140 ± 40", "unit": "µM"},
      {"measurement": "effect on in vitro response of iliac arteries to CaCl2", "setting": "[1]; cholesterol-fed monkeys, with captopril", "result": "neither cholesterol nor captopril affected"},
      {"measurement": "effect on in vitro response of iliac arteries to nifedipine", "setting": "[2]", "result": "neither cholesterol nor captopril affected"}
    ]}
  ]
}
